Source: US20250205344A1, “2,4-DIOXOTETRAHYDROPYRIMIDINYL DERATIVES AS DEGRONS IN PROTACS” (GLAXOSMITHKLINE INTELLECTUAL PROPERTY DEVELOPMENT LIMITED, priority 2022, published 2025)
Counter-ions that a name gives are not always drawn.

Target: T1, Androgen Receptor (Homo sapiens, UniProt P10275, T878A)
T1 construct: the AR gene was modified, using CRISPR/Cas9 editing, so the expressed AR protein included an 11 amino acid HiBiT tag; endogenous in cells; host or cells: clonal LnCaP-derived line, AR gene edited by CRISPR/Cas9
Assay: Androgen Receptor Degradation Assay (Nano-Glo HiBiT)
Format: cell-based
Conditions: LNCaP, 18 h, HiBiT-tagged AR in human LnCaP cells, read-out: mean asymptote max
Experimental: Degradation of Androgen Receptor protein in human LnCaP cells treated with PROTACs was quantified using the Nano-Glo® HiBiT Lytic Detection System (Promega) in 384 well assay plate format. A clonal LnCaP derived cell line was first established in which the AR gene was modified, using CRISPR/Cas9 editing, so the expressed AR protein included an 11 amino acid HiBiT tag at its amino-terminus. 10 mM DMSO stock solutions of PROTACs were prepared and diluted across an 11 concentration, 3 fold increment range, and 25 nL dispensed into a white opaque bottomed 384 well assay plate (Thermofisher) using an acoustic ECHO dispenser (Labcyte). […] For the assay, cells were detached from flask and resuspended with assay medium (FluoroBrite™ DMEM supplemented with 10% heat inactivated FBS, penicillin 50 U/mL and streptomycin 50 ug/mL (Thermofisher)). The cell suspension was centrifuged at 400 g for 5 min and the pellet resuspended in assay medium. 25 μL of cell suspension containing 10,000 cells was dispensed into each well of the assay plate containing the test compounds, which was then incubated for 18 h at 37° C./5% CO2. Control wells were included on each assay plate, with assay medium without cells being the no AR remaining 100% effect control, and cells treated with DMSO vehicle only, without PROTAC, the 0% effect control. 25 μL of Nano-Glo® HiBiT lysis buffer supplemented with LgBiT protein and Nano-Glo® substrate (Promega) was added to each well and the plate shaken at 500 rpm for 10 min at room temperature. The intensity of luminescence was measured using a PHERAstar microplate reader (BMG Labtech) and the % AR protein remaining in each well calculated by normalising the raw luminescence value to the above control wells. Parameters corresponding to the potency and efficacy estimates of the PROTACs were obtained from these normalised luminescence values using software (IDBS ActivityBase). These included the DC50 and the Dmax estimates. Two versions of the DC50, called relative DC50 and absolute DC50, were typically generated. These are the inflection point of a fitted 4 parameter sigmoidal response curve and the interpolated concentration of PROTAC corresponding to 50% of the protein being degraded, respectively. The Dmax parameter was the maximum experimentally observed degradation and the asymptote max parameter the fitted response curve asymptote maximum.

T1 sequence (P10275 whole entry T878A): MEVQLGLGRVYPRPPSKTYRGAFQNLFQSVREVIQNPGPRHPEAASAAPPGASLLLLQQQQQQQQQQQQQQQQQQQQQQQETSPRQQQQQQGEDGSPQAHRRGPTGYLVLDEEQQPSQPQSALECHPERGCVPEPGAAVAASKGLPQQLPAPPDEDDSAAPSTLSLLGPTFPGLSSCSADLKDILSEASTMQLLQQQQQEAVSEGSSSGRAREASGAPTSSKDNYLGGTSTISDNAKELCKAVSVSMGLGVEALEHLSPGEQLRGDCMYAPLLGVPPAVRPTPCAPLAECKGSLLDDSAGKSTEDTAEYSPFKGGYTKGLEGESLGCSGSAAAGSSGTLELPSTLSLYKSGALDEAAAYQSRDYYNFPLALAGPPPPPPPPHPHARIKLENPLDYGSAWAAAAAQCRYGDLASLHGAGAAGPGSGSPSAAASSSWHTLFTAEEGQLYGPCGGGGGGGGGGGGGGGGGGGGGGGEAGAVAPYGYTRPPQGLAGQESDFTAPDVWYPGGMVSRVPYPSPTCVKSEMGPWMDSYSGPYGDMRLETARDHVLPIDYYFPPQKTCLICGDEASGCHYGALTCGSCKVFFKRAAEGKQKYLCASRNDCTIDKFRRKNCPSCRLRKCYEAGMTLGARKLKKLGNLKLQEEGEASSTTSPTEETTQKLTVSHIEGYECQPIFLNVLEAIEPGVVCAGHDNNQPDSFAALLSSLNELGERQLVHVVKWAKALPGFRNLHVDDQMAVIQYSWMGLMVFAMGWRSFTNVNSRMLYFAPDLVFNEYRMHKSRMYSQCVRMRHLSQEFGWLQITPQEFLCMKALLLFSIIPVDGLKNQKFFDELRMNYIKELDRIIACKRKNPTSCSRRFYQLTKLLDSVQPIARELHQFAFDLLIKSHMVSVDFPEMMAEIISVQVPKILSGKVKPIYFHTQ
T1 sequence (Q96SW2 whole entry partner): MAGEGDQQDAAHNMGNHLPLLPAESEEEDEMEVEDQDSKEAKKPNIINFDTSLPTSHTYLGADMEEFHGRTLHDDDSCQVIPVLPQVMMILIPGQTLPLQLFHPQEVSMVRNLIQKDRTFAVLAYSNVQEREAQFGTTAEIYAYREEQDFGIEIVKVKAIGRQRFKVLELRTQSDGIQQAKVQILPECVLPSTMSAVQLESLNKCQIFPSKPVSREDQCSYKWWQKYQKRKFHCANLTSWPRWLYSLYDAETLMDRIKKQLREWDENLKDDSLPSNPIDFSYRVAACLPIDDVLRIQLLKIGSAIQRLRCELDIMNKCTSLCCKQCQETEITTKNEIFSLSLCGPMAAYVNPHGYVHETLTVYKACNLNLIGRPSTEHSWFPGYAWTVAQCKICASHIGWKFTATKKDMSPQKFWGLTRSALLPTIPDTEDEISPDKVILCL
T1 sequence (Q16531 whole entry partner): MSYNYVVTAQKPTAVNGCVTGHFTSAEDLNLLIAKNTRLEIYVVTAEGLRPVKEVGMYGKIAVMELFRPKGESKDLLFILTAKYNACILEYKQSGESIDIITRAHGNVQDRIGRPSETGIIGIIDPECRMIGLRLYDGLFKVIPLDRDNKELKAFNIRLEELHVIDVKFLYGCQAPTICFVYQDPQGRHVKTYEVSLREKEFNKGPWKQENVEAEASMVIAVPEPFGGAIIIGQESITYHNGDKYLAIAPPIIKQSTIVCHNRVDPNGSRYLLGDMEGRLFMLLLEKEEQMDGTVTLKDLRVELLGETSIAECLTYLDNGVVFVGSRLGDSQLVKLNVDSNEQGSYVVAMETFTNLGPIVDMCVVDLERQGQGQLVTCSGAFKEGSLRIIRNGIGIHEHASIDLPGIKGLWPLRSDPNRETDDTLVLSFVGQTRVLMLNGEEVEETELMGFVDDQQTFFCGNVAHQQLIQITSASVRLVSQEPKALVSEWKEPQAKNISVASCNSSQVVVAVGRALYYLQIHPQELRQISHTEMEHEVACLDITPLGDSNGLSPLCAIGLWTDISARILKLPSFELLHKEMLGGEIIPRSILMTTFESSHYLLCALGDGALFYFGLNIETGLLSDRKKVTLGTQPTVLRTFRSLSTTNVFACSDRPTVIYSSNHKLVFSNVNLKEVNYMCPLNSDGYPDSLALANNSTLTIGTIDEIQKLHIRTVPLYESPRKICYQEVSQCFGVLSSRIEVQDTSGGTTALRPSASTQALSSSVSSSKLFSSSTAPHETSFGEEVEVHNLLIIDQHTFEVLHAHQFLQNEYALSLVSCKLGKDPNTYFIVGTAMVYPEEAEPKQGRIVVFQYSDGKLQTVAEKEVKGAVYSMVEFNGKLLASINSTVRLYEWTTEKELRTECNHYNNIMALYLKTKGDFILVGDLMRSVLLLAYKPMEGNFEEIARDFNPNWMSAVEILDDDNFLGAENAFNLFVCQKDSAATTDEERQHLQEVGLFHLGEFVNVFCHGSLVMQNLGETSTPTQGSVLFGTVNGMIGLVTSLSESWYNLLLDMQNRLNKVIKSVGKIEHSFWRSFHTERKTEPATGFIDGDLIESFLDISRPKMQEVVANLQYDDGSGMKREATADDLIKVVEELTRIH

Compound	Dmax
N#Cc1ccc(O[C@H]2CC[C@H](NC(=O)c3ccc(N4CCC(CN5CCC(n6ncc7c(N8CCC(=O)NC8=O)cccc76)CC5)C4)nn3)CC2)cc1Cl (some centres unmarked) [EAR152, N-((1r,4r)-4-(3-Chloro-4-cyanophenoxy)cyclohexyl)-6-(3-((4-(4-(2,4-dioxotetrahydropyrimidin-1(2H)-yl)-1H-indazol-1-yl)piperidin-1-yl)methyl)pyrrolidin-1-yl)pyridazine-3-carboxamide, formic acid salt]	≥ 50%
CC1(C)[C@H](NC(=O)c2cnc(N3CCC(CN4CCC(n5ccc6c(N7CCC(=O)NC7=O)cccc65)CC4)CC3)cn2)C(C)(C)[C@H]1Oc1ccc(C#N)c(Cl)c1 [AR8, N-((1r,3r)-3-(3-Chloro-4-cyanophenoxy)-2,2,4,4-tetramethylcyclobutyl)-5-(4-((4-(4-(2,4-dioxotetrahydropyrimidin-1(2H)-yl)-1H-indol-1-yl)piperidin-1-yl)methyl)piperidin-1-yl)pyrazine-2-carboxamide]	≥ 50%
N#Cc1ccc(O[C@H]2CC[C@H](NC(=O)c3ccc(N4CCC[C@@H](CN5CCC(n6ncc7c(N8CCC(=O)NC8=O)cccc76)CC5)C4)nn3)CC2)cc1Cl (single isomer, unassigned) [EAR137]	≥ 50%
CC1(CN2CCC(n3ncc4c(N5CCC(=O)NC5=O)cccc43)CC2)CCN(c2ccc(C(=O)N[C@H]3CC[C@H](Oc4ccc(C#N)c(Cl)c4)CC3)nn2)C1 (some centres unmarked) [EAR241, N-((1r,4r)-4-(3-chloro-4-cyanophenoxy)cyclohexyl)-6-(3-((4-(4-(2,4-dioxotetrahydropyrimidin-1(2H)-yl)-1H-indazol-1-yl)piperidin-1-yl)methyl)-3-methylpyrrolidin-1-yl)pyridazine-3-carboxamide]	≥ 50%
N#Cc1ccc(O[C@H]2CC[C@H](NC(=O)c3ccc(N4CCC(CN5CC[C@@H](n6ccc7c(N8CCC(=O)NC8=O)cccc76)[C@@H](F)C5)CC4)nn3)CC2)cc1Cl [EAR155, N-((1r,4r)-4-(3-Chloro-4-cyanophenoxy)cyclohexyl)-6-(4-(((3S,4R)-4-(4-(2,4-dioxotetrahydropyrimidin-1(2H)-yl)-1H-indol-1-yl)-3-fluoropiperidin-1-yl)methyl)piperidin-1-yl)pyridazine-3-carboxamide, hydrochloride]	≥ 50%
N#Cc1ccc(O[C@H]2CC[C@H](NC(=O)c3ccc(N4CCC(CN5CCC(n6ncc7c(N8CCC(=O)NC8=O)ccnc76)CC5)CC4)nn3)CC2)cc1C(F)(F)F [EAR210, N-((1r,4r)-4-(4-Cyano-3-(trifluoromethyl)phenoxy)cyclohexyl)-6-(4-((4-(4-(2,4-dioxotetrahydropyrimidin-1(2H)-yl)-1H-pyrazolo[3,4-b]pyridin-1-yl)piperidin-1-yl)methyl)piperidin-1-yl)pyridazine-3-carboxamide]	≥ 50%
N#Cc1ccc(O[C@H]2CC[C@H](NC(=O)c3ccc(CCN4CCC(n5ccc6c(N7CCC(=O)NC7=O)cccc65)CC4)cc3)CC2)cc1Cl [EAR130, N-((1r,4r)-4-(3-Chloro-4-cyanophenoxy)cyclohexyl)-4-(2-(4-(4-(2,4-dioxotetrahydropyrimidin-1(2H)-yl)-1H-indol-1-yl)piperidin-1-yl)ethyl)benzamide]	≥ 50%
N#Cc1ccc(O[C@H]2CC[C@H](NC(=O)c3cnc(N4CCC(CN5CCC(n6ccc7c(N8CCC(=O)NC8=O)nccc76)CC5)CC4)nc3)CC2)cc1Cl [EAR211, N-((1r,4r)-4-(3-chloro-4-cyanophenoxy)cyclohexyl)-2-(4-((4-(4-(2,4-dioxotetrahydropyrimidin-1(2H)-yl)-1H-pyrrolo[3,2-c]pyridin-1-yl)piperidin-1-yl)methyl)piperidin-1-yl)pyrimidine-5-carboxamide hydrochloride]	≥ 50%
N#Cc1ccc(O[C@H]2CC[C@H](NC(=O)c3ccc(N4CCC(CN5CCC(n6ncc7c(N8CCC(=O)NC8=O)nccc76)CC5)CC4)nn3)CC2)cc1C(F)(F)F [EAR209, N-((1r,4r)-4-(4-cyano-3-(trifluoromethyl)phenoxy)cyclohexyl)-6-(4-((4-(4-(2,4-dioxotetrahydropyrimidin-1(2H)-yl)-1H-pyrazolo[4,3-c]pyridin-1-yl)piperidin-1-yl)methyl)piperidin-1-yl)pyridazine-3-carboxamide]	≥ 50%
N#Cc1ccc(O[C@H]2CC[C@H](NC(=O)c3cnc(N4CCC(CN5CCC(n6ccc7c(N8CCC(=O)NC8=O)nccc76)CC5)CC4)cn3)CC2)cc1C(F)(F)F [EAR181, N-((1r,4r)-4-(4-Cyano-3-(trifluoromethyl)phenoxy)cyclohexyl)-5-(4-((4-(4-(2,4-dioxotetrahydropyrimidin-1(2H)-yl)-1H-pyrrolo[3,2-c]pyridin-1-yl)piperidin-1-yl)methyl)piperidin-1-yl)pyrazine-2-carboxamide]	≥ 50%
C[C@@H]1CN(C(=O)Nc2cnc(N3CCC(CN4CCC(n5ccc6c(N7CCC(=O)NC7=O)cccc65)CC4)CC3)nc2)[C@@H](C)CN1c1ccc(C#N)c(Cl)c1 (racemic) [EAR114, rac-(trans)-4-(3-Chloro-4-cyanophenyl)-N-(2-(4-((4-(4-(2,4-dioxotetrahydropyrimidin-1(2H)-yl)-1H-indol-1-yl)piperidin-1-yl)methyl)piperidin-1-yl)pyrimidin-5-yl)-2,5-dimethylpiperazine-1-carboxamide]	≥ 50%
C[C@@H]1CN(C(=O)Nc2ccc(N3CCC(CN4CCC(n5ncc6c(N7CCC(=O)NC7=O)cccc65)CC4)CC3)nc2)[C@@H](C)CN1c1ccc(C#N)c(Cl)c1 [EAR138, (2S,5R)-4-(3-Chloro-4-cyanophenyl)-N-(6-(4-((4-(4-(2,4-dioxotetrahydropyrimidin-1(2H)-yl)-1H-indazol-1-yl)piperidin-1-yl)methyl)piperidin-1-yl)pyridin-3-yl)-2,5-dimethylpiperazine-1-carboxamide, formic acid salt]	≥ 50%
CC(C)n1ccc2c(N3CCC(=O)NC3=O)cc(C(=O)N3CCN(CC4CCN(c5ccc(C(=O)N[C@H]6C(C)(C)[C@H](Oc7ccc(C#N)c(Cl)c7)C6(C)C)nn5)CC4)CC3)cc21 [EAR78, N-((1r,3r)-3-(3-Chloro-4-cyanophenoxy)-2,2,4,4-tetramethylcyclobutyl)-6-(4-((4-(4-(2,4-dioxotetrahydropyrimidin-1(2H)-yl)-1-isopropyl-1H-indole-6-carbonyl)piperazin-1-yl)methyl)piperidin-1-yl)pyridazine-3-carboxamide]	≥ 50%
N#Cc1ccc(O[C@H]2CC[C@H](NC(=O)c3ccc(N4CCC(CN5CCC(n6ncc7c(N8CCC(=O)NC8=O)c(F)ccc76)CC5)CC4)nn3)CC2)cc1Cl [EAR140, N-((1r,4r)-4-(3-Chloro-4-cyanophenoxy)cyclohexyl)-6-(4-((4-(4-(2,4-dioxotetrahydropyrimidin-1(2H)-yl)-5-fluoro-1H-indazol-1-yl)piperidin-1-yl)methyl)piperidin-1-yl)pyridazine-3-carboxamide, hydrochloride]	≥ 50%
CC1CC(CN2CCC(n3ncc4c(N5CCC(=O)NC5=O)cccc43)CC2)CN1c1ccc(C(=O)N[C@H]2CC[C@H](Oc3ccc(C#N)c(Cl)c3)CC2)nn1 (some centres unmarked) [EAR232, N-((1r,4r)-4-(3-chloro-4-cyanophenoxy)cyclohexyl)-6-(4-((4-(4-(2,4-dioxotetrahydropyrimidin-1(2H)-yl)-1H-indazol-1-yl)piperidin-1-yl)methyl)-2-methylpyrrolidin-1-yl)pyridazine-3-carboxamide]	≥ 50%
N#Cc1ccc(O[C@H]2CC[C@H](NC(=O)c3ccc(N4CCC(CN5CCC(n6ncc7c(N8CCC(=O)NC8=O)nccc76)CC5)CC4)cc3)CC2)cc1Cl [EAR199, N-((1r,4r)-4-(3-Chloro-4-cyanophenoxy)cyclohexyl)-4-(4-((4-(4-(2,4-dioxotetrahydropyrimidin-1(2H)-yl)-1H-pyrazolo[4,3-c]pyridin-1-yl)piperidin-1-yl)methyl)piperidin-1-yl)benzamide]	≥ 50%
CN(CCCN1CCC(n2ncc3c(N4CCC(=O)NC4=O)cccc32)CC1)c1ccc(C(=O)N[C@H]2CC[C@H](Oc3ccc(C#N)c(Cl)c3)CC2)nn1 [EAR151, N-((1r,4r)-4-(3-Chloro-4-cyanophenoxy)cyclohexyl)-6-((3-(4-(4-(2,4-dioxotetrahydropyrimidin-1(2H)-yl)-1H-indazol-1-yl)piperidin-1-yl)propyl)(methyl)amino)pyridazine-3-carboxamide, formic acid salt]	≥ 50%
